Source: patent US20130040991A1, “PHARMACEUTICAL COMPOSITION COMPRISING GEMFIBROZIL AND CYP2C8 AND/OR OATP SUBSTRATE DRUG SUCH AS REPAGLINIDE” (priority 2010, published 2013)

How the values were obtained:
CYP2C8 [1] = target: T1, CYP2C8 (Homo sapiens, UniProt P10632); set-up: Estimation of CYP2C8 Half-Life Using Repaglinide as an in Vivo Probe; host or cells: in vivo (subjects of the cited studies); details: cited from earlier work
T1 sequence (P10632 1-490): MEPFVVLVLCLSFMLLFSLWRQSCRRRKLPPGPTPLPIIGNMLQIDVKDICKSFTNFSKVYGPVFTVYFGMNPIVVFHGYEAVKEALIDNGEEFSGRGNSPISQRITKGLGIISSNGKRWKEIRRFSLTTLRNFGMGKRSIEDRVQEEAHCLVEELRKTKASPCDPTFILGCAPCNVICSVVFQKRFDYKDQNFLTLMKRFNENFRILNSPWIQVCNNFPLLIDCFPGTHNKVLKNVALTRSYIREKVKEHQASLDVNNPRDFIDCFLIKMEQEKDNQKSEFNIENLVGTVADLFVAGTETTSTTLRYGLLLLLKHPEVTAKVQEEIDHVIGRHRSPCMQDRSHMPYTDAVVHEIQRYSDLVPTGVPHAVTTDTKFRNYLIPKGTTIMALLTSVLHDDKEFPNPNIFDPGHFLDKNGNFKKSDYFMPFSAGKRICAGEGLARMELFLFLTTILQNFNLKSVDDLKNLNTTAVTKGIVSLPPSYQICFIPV

CYP2C8 [2] = target: T1, CYP2C8; set-up: Estimation of CYP2C8 Half-Life Using Repaglinide as an in Vivo Probe; host or cells: in vivo (subjects of the cited studies); details: gemfibrozil 600 mg twice daily; Tornio et al 2008; cited from earlier work
CYP2C8 [3] = target: T1, CYP2C8; assay: Effect of single oral gemfibrozil doses on repaglinide AUC, fitted to a mechanistic model of CYP2C8 inhibition; type: in vivo; set-up: The subjects ingested in a cross-over study a small dose (0.25 mg) of repaglinide with different doses of gemfibrozil; from tissue; host or cells: living human subjects (in vivo)
Description: The effect of various oral single doses (30 mg, 100 mg, 300 mg and 900 mg) of gemfibrozil on the total plasma exposure, i.e., area under the plasma concentration-time curve (AUC), of a CYP2C8 and OATP1B1 substrate drug (repaglinide) was measured. The mean fold increase in the AUC (AUCi/AUCc) of repaglinide with the different gemfibrozil doses in six human subjects is given in relation to the mean average plasma concentration of gemfibrozil 1-O-β-glucuronide during 10 hours after gemfirozil dosing (Cavg). The subjects ingested in a cross-over study a small dose (0.25 mg) of repaglinide with different doses of gemfibrozil. Venous blood samples were taken at fixed time points up to 10 hours after gemfibrozil dosing, and plasma repaglinide, gemfibrozil and gemfibrozil 1-O-β-glucuronide concentrations were determined using a validated liquid chromatographic-tandem mass spectrometric (LC/MSMS) method. The data were fitted to the following mechanistic model (equation):

[4] = Effects of different gemfibrozil doses on plasma profiles of repaglinide, repaglinide dose adjusted to equal AUC; type: in vivo, human; details: when the ratio of gemfibrozil (0-900 mg) to repaglinide is increased; repaglinide dose adjusted to same AUC
Description: The effects of different doses of gemfibrozil (0 mg, 30 mg, 100 mg, 300 mg and 900 mg) on plasma profiles of repaglinide were measured. The doses of repaglinide were adjusted so that the total exposure to repaglinide (defined as the area under plasma repaglinide concentration-time curve, AUC) is the same in all 5 cases, corresponding to the AUC after a single dose of 0.25 mg repaglinide without gemfibrozil.

Row | effect of small gemfibrozil doses in repeated dosing (CYP2C8 [3]; repeated dosing, gemfibrozil doses <30 mg, due to irreversible inhibition of CYP2C8) | inhibition of the CYP2C8 enzyme (CYP2C8 [3]; single oral dose of 100 mg gemfibrozil, model-based from fold increase in repaglinide (0.25 mg) AUC, six human subjects) [%] | elimination half-life (and effect) of repaglinide [4] | estimated peak concentration of repaglinide [4] | SMILES | inhibitor of CYP2C8 (qualitative) (CYP2C8 [1]) | persistence of the risk of gemfibrozil-related interactions (effect on repaglinide pharmacokinetics) after the dose (CYP2C8 [2])
1 | increased | 90 |  |  | Cc1ccc(C)c(OCCCC(C)(C)C(=O)O)c1 [gemfibrozil, 5-(2,5-dimethylphenoxy)-2,2-dimethyl-pentanoic acid] | relatively weak inhibitor | at Least 12 hours
2 |  |  |  |  | Cc1ccc(C)c(OCCCC(C)(C)C(=O)O[C@@H]2O[C@H](C(=O)O)[C@@H](O)[C@H](O)[C@H]2O)c1 [gemfibrozil 1-O-β-glucuronide] | potent inhibitor and inactivator | 
3 |  |  | prolonged | reduced | CCOc1cc(CC(=O)N[C@@H](CC(C)C)c2ccccc2N2CCCCC2)ccc1C(=O)O [repaglinide] |  | 
